According to patent US20240025880A1 (CHIESI FARMACEUTICI S.P.A., priority 2020, published 2024):

Target: T1, h P2X3 (Homo sapiens, UniProt P56373)
T1 sequence (P56373 1-397): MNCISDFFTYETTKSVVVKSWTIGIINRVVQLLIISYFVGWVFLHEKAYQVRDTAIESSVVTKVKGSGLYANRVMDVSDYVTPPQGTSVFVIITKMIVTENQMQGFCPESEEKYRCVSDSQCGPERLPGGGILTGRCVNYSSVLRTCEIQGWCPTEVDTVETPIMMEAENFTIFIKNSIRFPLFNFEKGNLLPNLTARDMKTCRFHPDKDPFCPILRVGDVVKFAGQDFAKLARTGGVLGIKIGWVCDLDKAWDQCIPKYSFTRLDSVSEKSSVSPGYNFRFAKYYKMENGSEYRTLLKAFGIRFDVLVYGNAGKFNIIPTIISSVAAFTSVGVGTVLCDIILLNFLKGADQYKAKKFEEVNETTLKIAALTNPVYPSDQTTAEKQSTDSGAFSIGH
Assay: In vitro electrophysiology assay for P2X3 (automated whole-cell patch clamp, α,β-MeATP agonist)
Assay type: cell-based
Settings: Table 2; 800 nM α,β-MeATP, peak current; read-out: h P2X3 (pIC50 range of activity) (converted)
Protocol: In Vitro Electrophysiology Assay for P2X3
Cells expressing P2X3 receptors were grown according to standard practice and maintained at 37° C. in a 5% humidified CO2 atmosphere. The cells were seeded into T175 flask 2 days prior to the day of the assay and dissociated from the flasks using TrypLE when grown to confluence of 80-90%. The dissociated cells were resuspended in serum free media at a cell density of 3×10^6 cells/ml and loaded onto the Sophion Qube automated patch-clamp system. The extracellular assay buffer contained 145 mM NaCl, 4 mM KCl, 2 mM CaCl2, 1 mM MgCl2, 10 mM HEPES, and 10 mM glucose at pH 7.4. The intracellular assay solution contained 140 mM CsF, 10 mM NaCl, 10 mM EGTA, 10 mM HEPES at pH 7.2. Agonist stock solutions were prepared in H2O and diluted in bath solution prior to use. All antagonists were prepared as 10 mM stock solutions in DMSO and diluted in bath solution prior to use. All experiments were performed under the whole-cell patch clamp configuration at room temperature with 384 individual cells being voltage clamped at −60 mV simultaneously on the Sophion Qube instrument. Two baseline responses were established with the application of α,β-MeATP (800 nM), with the subsequent agonist applications being washed out using extracellular assay buffer containing 0.5 U/ml apyrase. Following the second agonist application, antagonist was incubated in the absence of α,β-MeATP for 10 minutes. After antagonist preincubation, 800 nM α,β-MeATP and antagonist were co-administered to determine the inhibitory effect of the antagonist. One concentration of an antagonist was assessed against a single cell, with different concentrations of the antagonist applied to other cells on the 384 recording substrate. The control P2X3 current amplitude was taken from the peak current amplitude from the second agonist response prior to preincubation with antagonist. The peak P2X3 current amplitude in the presence of antagonist was used to calculate the inhibitory effect at each concentration of the antagonist according to the following equation:
Percentage inhibition of P2X3=(P2X3 control peak amplitude−P2X3 antagonist peak amplitude)/P2X3 control peak amplitude)*100
Concentration-response curves were constructed from ten different concentrations with each concentration of antagonist tested on at least two individual cells. The concentration of the antagonist to inhibit P2X3 current by 50% (IC50) was determined by fitting the data with the following equation:
Y=a+[(b−a)/(1+10^((log c−x)d)]
Where ‘a’ is minimum response, ‘b’ is maximum response, ‘c’ is IC50 and ‘d’ is Hill slope.

| SMILES | IC50 |
| --- | --- |
| Cc1nnc(C(C)Nc2ncnc3c(S(=O)(=O)N4CCOCC4)cc(-c4ccc(F)cc4)cc23)s1 (racemic) [Example 12, (Rac)-6-(4-fluorophenyl)-N-(1-(5-methyl-1,3,4-thiadiazol-2-yl)ethyl)-8-(morpholinosulfonyl)quinazolin-4-amine] | < 316 nM |
| Cc1nnc(C(C)Nc2ncnc3c(OCC(F)F)cc(-c4ccc(F)cn4)cc23)s1 (single isomer, unassigned; enantiomer 2) [Example 7, Single enantiomer 2 of 8-(2,2-difluoroethoxy)-6-(5-fluoro-2-pyridyl)-N-[1-(5-methyl-1,3,4-thiadiazol-2-yl)ethyl]quinazolin-4-amine] | 3160 to 31600 nM |
| Cc1ccc(CNc2ncnc3c(OCC(F)F)cc(-c4ccc(F)cn4)cc23)nn1 [Example 4, 8-(2,2-difluoroethoxy)-6-(5-fluoropyridin-2-yl)-N-((6-methylpyridazin-3-yl)methyl)quinazolin-4-amine] | 316 to 3160 nM |
| Cc1ccc([C@@H](C)Nc2ncnc3c(OCC(F)F)cc(-c4ccc(F)cn4)cc23)nn1 [Example 5, (R)-8-(2,2-difluoroethoxy)-6-(5-fluoropyridin-2-yl)-N-(1-(6-methylpyridazin-3-yl)ethyl)quinazolin-4-amine] | 316 to 3160 nM |
| Cc1ccc(-c2cc(OCC(F)F)c3ncnc(NCc4ccc(C)nn4)c3c2)nc1 [Example 8, 8-(2,2-Difluoroethoxy)-N-((6-methylpyridazin-3-yl)methyl)-6-(5-methylpyridin-2-yl) quinazolin-4-amine] | < 316 nM |
| Cc1ccc([C@@H](C)Nc2ncnc3c(S(=O)(=O)N4CCOCC4)cc(-c4ccc(F)cc4)cc23)nn1 [Example 10, (R)-6-(4-fluorophenyl)-N-(1-(6-methylpyridazin-3-yl)ethyl)-8-(morpholinosulfonyl)quinazolin-4-amine] | 316 to 3160 nM |
| C[C@@H](Nc1ncnc2c(S(=O)(=O)N3CCOCC3)cc(-c3ccc(F)cc3)cc12)c1cnc(C(F)(F)F)nc1 [Example 11] | < 316 nM |
| Cc1ccc([C@@H](C)Nc2ncnc3c(S(=O)(=O)N(C)C)cc(-c4ccc(F)cc4)cc23)nn1 [Example 13, (R)-6-(4-fluorophenyl)-N,N-dimethyl-4-((1-(6-methylpyridazin-3-yl)ethyl)amino)quinazoline-8-sulfonamide] | < 316 nM |
| Cc1nnc(C(C)Nc2ncnc3c(S(=O)(=O)N(C)C)cc(-c4ccc(F)cc4)cc23)s1 (stereo not drawn) [Example 14, 6-(4-fluorophenyl)-N,N-dimethyl-4-((1-(5-methyl-1,3,4-thiadiazol-2-yl)ethyl)amino)quinazoline-8-sulfonamide] | < 316 nM |
| Cc1nnc(C(C)Nc2ncnc3c(S(=O)(=O)N4CCC(F)(F)C4)cc(-c4ccc(F)cc4)cc23)s1 (stereo not drawn) [Example 18, 8-((3,3-difluoropyrrolidin-1-yl)sulfonyl)-6-(4-fluorophenyl)-N-(1-(5-methyl-1,3,4-thiadiazol-2-yl)ethyl)quinazolin-4-amine] | 316 to 3160 nM |
| Cc1ccc([C@@H](C)Nc2ncnc3c(S(=O)(=O)N4CCC(O)CC4)cc(-c4ccc(F)cc4)cc23)nn1 [Example 19, (R)-1-((6-(4-fluorophenyl)-4-((1-(6-methylpyridazin-3-yl)ethyl)amino)quinazolin-8-yl)sulfonyl)piperidin-4-ol] | 316 to 3160 nM |
| Cc1nc([C@@H](C)Nc2ncnc3c(S(=O)(=O)N4CCC(O)CC4)cc(-c4ccc(F)cc4)cc23)no1 [Example 20, (R)-1-((6-(4-fluorophenyl)-4-((1-(5-methyl-1,2,4-oxadiazol-3-yl)ethyl)amino)quinazolin-8-yl)sulfonyl)piperidin-4-ol] | < 316 nM |
| CNS(=O)(=O)c1cc(-c2ccc(F)cc2)cc2c(NC(C)c3nnc(C)s3)ncnc12 (stereo not drawn) [Example 23] | 316 to 3160 nM |
| Cc1ccc([C@@H](C)Nc2ncnc3c(S(=O)(=O)N4CCNCC4)cc(-c4ccc(F)cc4)cc23)nn1 [Example 24, (R)-6-(4-fluorophenyl)-N-(1-(6-methylpyridazin-3-yl)ethyl)-8-(piperazin-1-ylsulfonyl)quinazolin-4-amine] | 316 to 3160 nM |
| Cc1nc([C@@H](C)Nc2ncnc3c(S(=O)(=O)N4CCNCC4)cc(-c4ccc(F)cc4)cc23)no1 [Example 25, (R)-6-(4-fluorophenyl)-N-(1-(5-methyl-1,2,4-oxadiazol-3-yl)ethyl)-8-(piperazin-1-ylsulfonyl)quinazolin-4-amine] | 316 to 3160 nM |
| CSc1cc(-c2ccc(F)cc2)cc2c(N[C@H](C)c3ccc(C)nn3)ncnc12 [Example 26, (R)-6-(4-fluorophenyl)-N-(1-(6-methylpyridazin-3-yl)ethyl)-8-(methylthio)quinazolin-4-amine] | 316 to 3160 nM |
| Cc1ccc([C@@H](C)Nc2ncnc3c(SC4COC4)cc(-c4ccc(F)cc4)cc23)nn1 [Example 28, (R)-6-(4-fluorophenyl)-N-(1-(6-methylpyridazin-3-yl)ethyl)-8-(oxetan-3-ylthio)quinazolin-4-amine] | 3160 to 31600 nM |
| Cc1ccc([C@@H](C)Nc2ncnc3c([S+]([O-])C4COC4)cc(-c4ccc(F)cc4)cc23)nn1 (stereo partly drawn) [Example 29, 6-(4-fluorophenyl)-N-((R)-1-(6-methylpyridazin-3-yl)ethyl)-8-(oxetan-3-ylsulfinyl)quinazolin-4-amine] | 3160 to 31600 nM |
| CC(=O)N1CC[C@@H](Oc2cc(-c3ccc(F)cc3)cc3c(N[C@H](C)c4cnc(C(F)(F)F)nc4)ncnc23)C1 [Example 30] | 316 to 3160 nM |
| CC(=O)N1CC[C@H](Oc2cc(-c3ccc(F)cc3)cc3c(N[C@H](C)c4cnc(C(F)(F)F)nc4)ncnc23)C1 [Example 31] | 316 to 3160 nM |
| CC(=O)N[C@H]1CC[C@@H](Oc2cc(-c3ccc(F)cc3)cc3c(N[C@H](C)c4cnc(C(F)(F)F)nc4)ncnc23)CC1 [Example 32, N-((1S,4s)-4-((6-(4-fluorophenyl)-4-(((R)-1-(2-(trifluoromethyl)pyrimidin-5-yl)ethyl)amino)quinazolin-8-yl)oxy)cyclohexyl)acetamide] | 316 to 3160 nM |
| C[C@@H](Nc1ncnc2c(OC3CCN(CC(F)(F)F)C3)cc(-c3ccc(F)cc3)cc12)c1cnc(C(F)(F)F)nc1 (stereo partly drawn) [Example 33, 6-(4-fluorophenyl)-8-((1-(2,2,2-trifluoroethyl)pyrrolidin-3-yl)oxy)-N-((R)-1-(2-(trifluoromethyl)pyrimidin-5-yl)ethyl)quinazolin-4-amine] | 316 to 3160 nM |
| CC(=O)N1CCC(Oc2cc(-c3ccc(F)cc3)cc3c(N[C@H](C)c4cnc(C(F)(F)F)nc4)ncnc23)CC1 [Example 35, (R)-1-(4-((6-(4-fluorophenyl)-4-((1-(2-(trifluoromethyl)pyrimidin-5-yl)ethyl)amino)quinazolin-8-yl)oxy)piperidin-1-yl)ethan-1-one] | 316 to 3160 nM |
| C[C@@H](Nc1ncnc2c(OC3CCN(CC(F)(F)F)CC3)cc(-c3ccc(F)cc3)cc12)c1cnc(C(F)(F)F)nc1 [Example 36] | 316 to 3160 nM |
| C[C@@H](Nc1ncnc2c(OCC3(O)COC3)cc(-c3ccc(F)cc3)cc12)c1cnc(C(F)(F)F)nc1 [Example 37, (R)-3-(((6-(4-fluorophenyl)-4-((1-(2-(trifluoromethyl)pyrimidin-5-yl)ethyl)amino)quinazolin-8-yl)oxy)methyl)oxetan-3-ol] | < 316 nM |
| C[C@@H](Nc1ncnc2c(OCc3cc(O)no3)cc(-c3ccc(F)cc3)cc12)c1cnc(C(F)(F)F)nc1 [Example 38, (R)-5-(((6-(4-fluorophenyl)-4-((1-(2-(trifluoromethyl)pyrimidin-5-yl)ethyl)amino)quinazolin-8-yl)oxy)methyl)isoxazol-3-ol] | < 316 nM |
| C[C@@H](Nc1ncnc2c(OCC(=O)O)cc(-c3ccc(F)cc3)cc12)c1cnc(C(F)(F)F)nc1 [Example 39, (R)-2-((6-(4-fluorophenyl)-4-((1-(2-(trifluoromethyl)pyrimidin-5-yl)ethyl)amino)quinazolin-8-yl)oxy)acetic acid] | < 316 nM |
